Measurements reported in ChEMBL document CHEMBL4482311, “Modulators of Prostate-Specific G-Protein Receptor (PSGR/OR51E2) and Methods of Using Same” (2018).
Activity calls are given as the source filed them.

Tests used:
Type in all cases: cell-based
[1] = target: T1, Olfactory receptor 51E2 (Homo sapiens) (UniProt Q9H255); assay: Agonist activity at PSGR/OR51E2 in human LNCaP cells assessed as induction of change in intracellular metabolites level by measuring serine level at 250 uM incubated for 72 hrs by GC/MS analysis
T1 sequence (whole entry): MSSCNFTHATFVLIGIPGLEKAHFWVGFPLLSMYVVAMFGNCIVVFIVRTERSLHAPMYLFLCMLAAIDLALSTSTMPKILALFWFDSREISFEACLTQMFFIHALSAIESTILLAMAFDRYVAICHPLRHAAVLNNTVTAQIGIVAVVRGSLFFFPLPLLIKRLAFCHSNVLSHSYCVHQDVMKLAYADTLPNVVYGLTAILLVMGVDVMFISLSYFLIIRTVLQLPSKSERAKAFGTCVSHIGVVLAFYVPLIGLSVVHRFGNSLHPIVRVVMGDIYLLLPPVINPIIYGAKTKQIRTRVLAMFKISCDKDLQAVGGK

[2] = target: T1, Olfactory receptor 51E2 (Homo sapiens); assay: Agonist activity at PSGR/OR51E2 in human LNCaP cells assessed as induction of change in intracellular metabolites level by measuring fumaric acid level at 250 uM incubated for 72 hrs by GC/MS analysis
[3] = target: T1, Olfactory receptor 51E2 (Homo sapiens); assay: Agonist activity at PSGR/OR51E2 in human LNCaP cells assessed as induction of change in extracellular metabolites level by measuring glycine level at 250 uM incubated for 72 hrs by GC/MS analysis
[4] = target: T1, Olfactory receptor 51E2 (Homo sapiens); assay: Agonist activity at PSGR/OR51E2 in human LNCaP cells assessed as induction of change in extracellular metabolites level by measuring guanine level at 250 uM incubated for 72 hrs by GC/MS analysis
[5] = target: T1, Olfactory receptor 51E2 (Homo sapiens); assay: Agonist activity at PSGR/OR51E2 in human LNCaP cells assessed as induction of change in extracellular metabolites level by measuring alanine level at 250 uM incubated for 72 hrs by GC/MS analysis
[6] = target: T1, Olfactory receptor 51E2 (Homo sapiens); assay: Agonist activity at PSGR/OR51E2 in human LNCaP cells assessed as induction of change in intracellular metabolites level by measuring ethanolamine level at 250 uM incubated for 72 hrs by GC/MS analysis
[7] = target: T1, Olfactory receptor 51E2 (Homo sapiens); assay: Agonist activity at PSGR/OR51E2 in human LNCaP cells assessed as induction of change in intracellular metabolites level by measuring oleic acid level at 250 uM incubated for 72 hrs by GC/MS analysis
[8] = target: T1, Olfactory receptor 51E2 (Homo sapiens); assay: Agonist activity at PSGR/OR51E2 in human LNCaP cells assessed as induction of change in extracellular metabolites level by measuring glutamine level at 250 uM incubated for 72 hrs by GC/MS analysis
[9] = target: T1, Olfactory receptor 51E2 (Homo sapiens); assay: Agonist activity at PSGR/OR51E2 in human LNCaP cells assessed as induction of change in extracellular metabolites level by measuring serine level at 250 uM incubated for 72 hrs by GC/MS analysis
[10] = target: T1, Olfactory receptor 51E2 (Homo sapiens); assay: Agonist activity at PSGR/OR51E2 in human LNCaP cells assessed as induction of change in intracellular metabolites level by measuring O-methylphosphate level at 250 uM incubated for 72 hrs by GC/MS analysis
[11] = target: T1, Olfactory receptor 51E2 (Homo sapiens); assay: Agonist activity at PSGR/OR51E2 in human LNCaP cells assessed as induction of change in extracellular metabolites level by measuring xanthine level at 250 uM incubated for 72 hrs by GC/MS analysis
[12] = target: T1, Olfactory receptor 51E2 (Homo sapiens); assay: Agonist activity at PSGR/OR51E2 in human LNCaP cells assessed as induction of change in extracellular metabolites level by measuring cystine level at 250 uM incubated for 72 hrs by GC/MS analysis
[13] = target: T1, Olfactory receptor 51E2 (Homo sapiens); assay: Agonist activity at PSGR/OR51E2 in human LNCaP cells assessed as induction of change in intracellular metabolites level by measuring threonine level at 250 uM incubated for 72 hrs by GC/MS analysis
[14] = target: T1, Olfactory receptor 51E2 (Homo sapiens); assay: Agonist activity at PSGR/OR51E2 in human LNCaP cells assessed as induction of change in intracellular metabolites level by measuring malic acid level at 250 uM incubated for 72 hrs by GC/MS analysis
[15] = target: T1, Olfactory receptor 51E2 (Homo sapiens); assay: Agonist activity at PSGR/OR51E2 in human LNCaP cells assessed as induction of change in extracellular metabolites level by measuring glutaric acid level at 250 uM incubated for 72 hrs by GC/MS analysis
[16] = target: T1, Olfactory receptor 51E2 (Homo sapiens); assay: Agonist activity at PSGR/OR51E2 in human LNCaP cells assessed as induction of change in intracellular metabolites level by measuring ornithine level at 250 uM incubated for 72 hrs by GC/MS analysis
[17] = target: T1, Olfactory receptor 51E2 (Homo sapiens); assay: Agonist activity at PSGR/OR51E2 in human LNCaP cells assessed as induction of change in intracellular metabolites level by measuring pentonic-acids level at 250 uM incubated for 72 hrs by GC/MS analysis
[18] = target: T1, Olfactory receptor 51E2 (Homo sapiens); assay: Agonist activity at PSGR/OR51E2 in human LNCaP cells assessed as induction of change in extracellular metabolites level by measuring threose/erythrose level at 250 uM incubated for 72 hrs by GC/MS analysis
[19] = target: T1, Olfactory receptor 51E2 (Homo sapiens); assay: Agonist activity at PSGR/OR51E2 in human LNCaP cells assessed as induction of change in extracellular metabolites level by measuring phenylalanine level at 250 uM incubated for 72 hrs by GC/MS analysis
[20] = target: T1, Olfactory receptor 51E2 (Homo sapiens); assay: Agonist activity at PSGR/OR51E2 in human LNCaP cells assessed as induction of change in extracellular metabolites level by measuring lactic acid level at 250 uM incubated for 72 hrs by GC/MS analysis
[21] = target: T1, Olfactory receptor 51E2 (Homo sapiens); assay: Agonist activity at PSGR/OR51E2 in human LNCaP cells assessed as induction of change in intracellular metabolites level by measuring lactic acid level at 250 uM incubated for 72 hrs by GC/MS analysis
[22] = target: T1, Olfactory receptor 51E2 (Homo sapiens); assay: Agonist activity at PSGR/OR51E2 in human LNCaP cells assessed as induction of change in intracellular metabolites level by measuring spermidine level at 250 uM incubated for 72 hrs by GC/MS analysis
[23] = target: T1, Olfactory receptor 51E2 (Homo sapiens); assay: Agonist activity at PSGR/OR51E2 in human LNCaP cells assessed as induction of change in extracellular metabolites level by measuring tyrosine level at 250 uM incubated for 72 hrs by GC/MS analysis
[24] = target: T1, Olfactory receptor 51E2 (Homo sapiens); assay: Agonist activity at PSGR/OR51E2 in human LNCaP cells assessed as induction of change in extracellular metabolites level by measuring uric acid level at 250 uM incubated for 72 hrs by GC/MS analysis
[25] = target: T1, Olfactory receptor 51E2 (Homo sapiens); assay: Agonist activity at PSGR/OR51E2 in human LNCaP cells assessed as induction of change in extracellular metabolites level by measuring asparagine level at 250 uM incubated for 72 hrs by GC/MS analysis
[26] = target: T1, Olfactory receptor 51E2 (Homo sapiens); assay: Agonist activity at PSGR/OR51E2 in human LNCaP cells assessed as induction of change in intracellular metabolites level by measuring glucose-6-phosphate level at 250 uM incubated for 72 hrs by GC/MS analysis
[27] = target: T1, Olfactory receptor 51E2 (Homo sapiens); assay: Agonist activity at PSGR/OR51E2 in human LNCaP cells assessed as induction of change in extracellular metabolites level by measuring lysine level at 250 uM incubated for 72 hrs by GC/MS analysis
[28] = target: T1, Olfactory receptor 51E2 (Homo sapiens); assay: Agonist activity at PSGR/OR51E2 in human LNCaP cells assessed as induction of change in intracellular metabolites level by measuring inosine level at 250 uM incubated for 72 hrs by GC/MS analysis
[29] = target: T1, Olfactory receptor 51E2 (Homo sapiens); assay: Agonist activity at PSGR/OR51E2 in human LNCaP cells assessed as induction of change in intracellular metabolites level by measuring beta-alanine level at 250 uM incubated for 72 hrs by GC/MS analysis
[30] = target: T1, Olfactory receptor 51E2 (Homo sapiens); assay: Agonist activity at PSGR/OR51E2 in human LNCaP cells assessed as induction of change in intracellular metabolites level by measuring 3-phosphoglyceric acid level at 250 uM incubated for 72 hrs by GC/MS analysis

Measured: Activity

COc1ccc(NC=O)c(C(=O)CCNC(C)=O)c1
active: all assays above
